Reference: US5756666A, “Peptides capable of inducing immune response to HIV” (priority 1993, dated 1998)
Ends that are not written are not given here.

Test system: T2-B * 3501 cells

TPPLVKLWY [HIV(B35)-16]
induction of CTL with specific cytotoxic activity: effective for inducing CTLs capable of damaging the synthetic peptide-binding T2-B * 3501 cells
